Converted amounts (≈) assume the structure as drawn. Where two headings read alike, the source gives them in different places. Non-standard residues stand in square brackets, D forms with d. Residues, ends and D or L forms follow the SMILES beside them. No end group written: not given here.
Columns and labels:
Assay type in all cases: cell-based
[1] = tested on: A. baumannii Josh 230; assay: microbe, parasite or virus in culture
From the text: (§1) The following strains were used: P. aeruginosa (ATCC 27,853 and resistant strains: J4228 (R: Meropenem), BB2013-100 (FQR)); A. baumannii (Josh 28 and resistant strain Josh 230 (OXA-48); E. cloacae (resistant strains: BB2012-181(R: Meropenem), BB2013-32 (FQR)); E. aerogenes (resistant strain St. L P63 (NDM-1), E. asburiae/cloacae (resistant strain St. L P23 (NDM-1), K. pneumonia (J3702 and resistant strains: BB2009-209 (KPC-2), Oschner KP-1), Escherichia coli (BW25113 (7636) and resistant strains: JW55034 (11430) (Tol neg), BB2013-30 (R:carbapenem), ARLG-1012 (NDM)). Susceptibility testing was performed using non-cation adjusted MHB broth and polypropylene plates. Testing was also done in the presence and absence of acetic acid and BSA.

[2] = tested on: A. baumannii Josh 28; assay: microbe, parasite or virus in culture
From the text: as §1

[3] = tested on: E. aerogenes St. L P63; assay: microbe, parasite or virus in culture
From the text: as §1

[4] = tested on: E. cloacae BB2012-181; assay: microbe, parasite or virus in culture
From the text: as §1

[5] = tested on: E. cloacae BB2013-32; assay: microbe, parasite or virus in culture
From the text: as §1

[6] = tested on: E. coli ARLG-1012; assay: microbe, parasite or virus in culture
From the text: as §1

[7] = tested on: E. coli BB2013-30; assay: microbe, parasite or virus in culture
From the text: as §1

[8] = tested on: E. coli BW25113 (7636); assay: microbe, parasite or virus in culture
From the text: as §1

[9] = tested on: E. coli JW55034 (11430); assay: microbe, parasite or virus in culture; conditions: phenotype Tol neg, non-cation adjusted MHB broth, polypropylene plates, meropenem by standard CLSI method
From the text: as §1

[10] = tested on: K. pneumoniae BB2009-209; assay: microbe, parasite or virus in culture
From the text: as §1

[11] = tested on: K. pneumoniae J3702; assay: microbe, parasite or virus in culture
From the text: as §1

[12] = tested on: K. pneumoniae Oschner KP-1; assay: microbe, parasite or virus in culture
From the text: as §1

[13] = tested on: P. aeruginosa ATCC 27853; assay: microbe, parasite or virus in culture
From the text: as §1

[14] = tested on: P. aeruginosa BB2013-100; assay: microbe, parasite or virus in culture
From the text: as §1

[15] = tested on: P. aeruginosa J4228; assay: microbe, parasite or virus in culture
From the text: as §1

[16] = tested on: E. asburiae/cloacae St. L P23; assay: organism not typed
From the text: as §1

[17] = tested on: Escherichia coli ATCC 25922
Experimental: The MICs of the designed cationic peptides against Escherichia coli ATCC 25,922 strains were determined by the broth microdilution method, as described by Hancock et al.. All MIC evaluations were performed using Luria Bertani (LB) medium. Briefly, a range of each peptide concentrations (100 µg/mL, 50 µg/mL, 25 µg/mL, 12.5 µg/mL, 6.25 µg/mL, 3.125 µg/mL) was prepared by serial dilution in NaCl-depleted LB medium and added to an equal volume (250 µl) of exponentially grown bacterial culture, so that final bacterial suspension contained 5 × 10^5 CFU/mL. The samples were incubated in 2 mL polypropylene microtubes at 37 °C overnight at 300 rpm. The MIC was defined as the concentration at which no microbial growth was detected spectrophotometrically, via readings of optical density (OD) at 600 nm (Biotek ELX800 microplate reader). Growth medium containing only bacterial cells was used as a negative control. Each MIC test was carried out in two replicates and repeated three times.

`C[C@@H](O)[C@H]1C(=O)N2C(C(=O)O)=C(S[C@@H]3CN[C@H](C(=O)N(C)C)C3)[C@H](C)[C@H]12` [Meropenem, reference compound] gave an MIC ([1]; Acinetobacter baumannii, JOSH230, A. baumannii Josh 230, phenotype OXA-48, non-cation adjusted MHB broth, polypropylene plates, meropenem by standard CLSI method, read-out: MIC) of 1 µg/mL (≈ 2.61 µM), an MIC ([2]; Acinetobacter baumannii, JOSH28, A. baumannii Josh 28, phenotype Susceptible, non-cation adjusted MHB broth, polypropylene plates, meropenem by standard CLSI method, read-out: MIC) of 32 µg/mL (≈ 83.4 µM) and an MIC ([3]; Klebsiella aerogenes, ST.LP63, E. aerogenes St. L P63, phenotype NDM-1, non-cation adjusted MHB broth, polypropylene plates, meropenem by standard CLSI method, read-out: MIC) of 16 µg/mL (≈ 41.7 µM). For the same compound, the MIC ([4]; Enterobacter cloacae, BB2012181, E. cloacae BB2012-181, phenotype R: Meropenem, non-cation adjusted MHB broth, polypropylene plates, meropenem by standard CLSI method, read-out: MIC) was 16 µg/mL (≈ 41.7 µM), the MIC ([5]; Enterobacter cloacae, BB201332, E. cloacae BB2013-32, phenotype FQR, non-cation adjusted MHB broth, polypropylene plates, meropenem by standard CLSI method, read-out: MIC) was 0.5 µg/mL (≈ 1.3 µM) and the MIC ([6]; Escherichia coli, ARLG1012, E. coli ARLG-1012, phenotype NDM, non-cation adjusted MHB broth, polypropylene plates, meropenem by standard CLSI method, read-out: MIC) was 64 µg/mL (≈ 167 µM). For the same compound, the MIC ([7]; Escherichia coli, BB201330, E. coli BB2013-30, phenotype R:carbapenem, non-cation adjusted MHB broth, polypropylene plates, meropenem by standard CLSI method, read-out: MIC) was 1 µg/mL (≈ 2.61 µM), the MIC ([8]; Escherichia coli, E. coli BW25113 (7636), phenotype WT, Tol parent strain, non-cation adjusted MHB broth, polypropylene plates, meropenem by standard CLSI method, read-out: MIC) was ≤ 0.125 µg/mL and the MIC ([9]; Escherichia coli, read-out: MIC) was ≤ 0.125 µg/mL. The MIC ([10]; Klebsiella pneumoniae, BB2009209, K. pneumoniae BB2009-209, phenotype KPC-2, non-cation adjusted MHB broth, polypropylene plates, meropenem by standard CLSI method, read-out: MIC) was 32 µg/mL (≈ 83.4 µM), the MIC ([11]; Klebsiella pneumoniae, K. pneumoniae J3702, phenotype Susceptible, non-cation adjusted MHB broth, polypropylene plates, meropenem by standard CLSI method, read-out: MIC) was ≤ 0.125 µg/mL and the MIC ([12]; Klebsiella pneumoniae, K. pneumoniae Oschner KP-1, phenotype KPC-3, non-cation adjusted MHB broth, polypropylene plates, meropenem by standard CLSI method, read-out: MIC) was 16 µg/mL (≈ 41.7 µM). For the same compound, the MIC ([13]; Pseudomonas aeruginosa, ATCC27853, P. aeruginosa ATCC 27853, phenotype CLSI Control, non-cation adjusted MHB broth, polypropylene plates, meropenem by standard CLSI method, read-out: MIC) was 1 µg/mL (≈ 2.61 µM), the MIC ([14]; Pseudomonas aeruginosa, BB2013100, P. aeruginosa BB2013-100, phenotype FQR, non-cation adjusted MHB broth, polypropylene plates, meropenem by standard CLSI method, read-out: MIC) was 1 µg/mL (≈ 2.61 µM) and the MIC ([15]; Pseudomonas aeruginosa, P. aeruginosa J4228, phenotype R: Meropenem, non-cation adjusted MHB broth, polypropylene plates, meropenem by standard CLSI method, read-out: MIC) was > 64 µg/mL. For the same compound, the MIC ([16]; E. asburiae/cloacae St. L P23, phenotype NDM-1, non-cation adjusted MHB broth, polypropylene plates, meropenem by standard CLSI method, read-out: MIC) was 16 µg/mL (≈ 41.7 µM).
`CC[C@@H](C)[C@@H](NC(=O)[C@@H](C)N)C(=O)N[C@H](CCCCN)C(=O)N[C@@H](C(=O)N[C@H](CCCNC(=N)N)C(=O)N[C@H](CCCCN)C(=O)N[C@H](CC(C)C)C(=O)N[C@H](Cc1ccccc1)C(=O)N[C@H](CCCCN)C(=O)N[C@H](CCCCN)C(=O)N[C@H](CC(C)C)C(=O)N[C@H](CC(C)C)C(=O)N[C@H](CCCNC(=N)N)C(N)=O)[C@H](C)CC` [SP1D] (H-[dA][dI][dK][dI][dR][dK][dL][dF][dK][dK][dL][dL][dR]-NH2) was tested, and the “MIC At NaCl” value [17] was 12.5 to 25 µg/mL and the “MIC Without NaCl” value [17] was 3.125 to 6.25 µg/mL.
With `CC[C@@H](C)[C@@H](NC(=O)[C@@H](Cc1c[nH]c2ccccc12)NC(=O)[C@H](N)CCCNC(=N)N)C(=O)N[C@H](CCCNC(=N)N)C(=O)N[C@H](Cc1c[nH]c2ccccc12)C(=O)N[C@@H](C(=O)N[C@H](Cc1c[nH]c2ccccc12)C(=O)N[C@H](CCCNC(=N)N)C(=O)N[C@H](CCCCN)C(=O)N[C@H](CCCCN)C(=O)N[C@H](CC(C)C)C(=O)N[C@H](CCCNC(=N)N)C(N)=O)C(C)C` [SP15D] (H-[dR][dW][dI][dR][dW][dV][dW][dR][dK][dK][dL][dR]-NH2) the “MIC At NaCl” value [17] was 0.78 to 1.56 µg/mL and the “MIC Without NaCl” value [17] was 0.39 to 0.78 µg/mL.
In the case of AIKIRKLFKKLLR-NH2 [SP1], the “MIC At NaCl” value [17] is reported as 12.5 to 25 µg/mL, the “MIC Without NaCl” value [17] is reported as 3.125 to 6.25 µg/mL and the MIC ([1]; Josh 230) is reported as 16 µg/mL. The MIC ([2]; Josh 28) was 4 µg/mL, the MIC ([5]; BB2013-32) was >32 µg/mL and the MIC ([6]; ARLG-1012) was 8 µg/mL. The MIC ([7]; BB2013-30) was 16 µg/mL, the MIC ([8]; BW25113) was 8 µg/mL and the MIC [9] was 8 µg/mL. The MIC ([10]; BB2009-209) was >32 µg/mL, the MIC ([11]; J3702) was >32 µg/mL and the MIC ([12]; Oschner KP-1) was >32 µg/mL. It also gave an MIC ([13]; ATCC 27853) of 4 µg/mL, an MIC ([14]; BB2013-100) of 32 µg/mL and an MIC ([15]; J4228) of 8 µg/mL. The MIC [16] was >32 µg/mL.
For AKVLKISRRAFRK-NH2 [SP10], the “MIC At NaCl” value [17] was >100 µg/mL and the “MIC Without NaCl” value [17] was 25 to 50 µg/mL.
GIKFFLKKLKKHI-NH2 [SP4] was tested, and the “MIC At NaCl” value [17] was 25 to 50 µg/mL, the “MIC Without NaCl” value [17] was 6.25 to 12.5 µg/mL and the MIC ([1]; Josh 230) was 4 µg/mL. The MIC ([2]; Josh 28) was 2 µg/mL, the MIC ([3]; St. L P63) was 16 µg/mL and the MIC ([4]; BB2012-181) was >32 µg/mL. The MIC ([5]; BB2013-32) was 16 µg/mL, the MIC ([6]; ARLG-1012) was 8 µg/mL and the MIC ([7]; BB2013-30) was 16 µg/mL. The MIC ([8]; BW25113) was 8 µg/mL, the MIC [9] was 8 µg/mL and the MIC ([10]; BB2009-209) was >32 µg/mL. The MIC ([11]; J3702) was 32 µg/mL, the MIC ([12]; Oschner KP-1) was >32 µg/mL and the MIC ([13]; ATCC 27853) was 8 µg/mL. The MIC ([14]; BB2013-100) was 32 µg/mL, the MIC ([15]; J4228) was 16 µg/mL and the MIC [16] was >32 µg/mL.
GIKIRKLFKKLLR-NH2 [SP2] was tested, and the “MIC At NaCl” value [17] was 6.25 to 12.5 µg/mL and the “MIC Without NaCl” value [17] was 3.125 to 6.25 µg/mL.
With GWAKLITKAIKKI-NH2 [SP3] the “MIC At NaCl” value [17] was 25 to 50 µg/mL, the “MIC Without NaCl” value [17] was 12.5 to 25 µg/mL and the MIC ([1]; Josh 230) was 16 µg/mL. It also gave an MIC ([2]; Josh 28) of 4 µg/mL, an MIC ([3]; St. L P63) of 16 µg/mL and an MIC ([4]; BB2012-181) of 16 µg/mL. For the same compound, the MIC ([5]; BB2013-32) was 16 µg/mL, the MIC ([6]; ARLG-1012) was 4 µg/mL and the MIC ([7]; BB2013-30) was 8 µg/mL. The MIC ([8]; BW25113) was 4 µg/mL, the MIC [9] was 4 µg/mL and the MIC ([10]; BB2009-209) was >32 µg/mL. For the same compound, the MIC ([11]; J3702) was 16 µg/mL, the MIC ([12]; Oschner KP-1) was >32 µg/mL and the MIC ([13]; ATCC 27853) was 8 µg/mL. The MIC ([14]; BB2013-100) was 32 µg/mL, the MIC ([15]; J4228) was 16 µg/mL and the MIC [16] was 32 µg/mL.
In the case of HFKIRKRFVKKLV-NH2 [SP13], the “MIC At NaCl” value [17] is reported as >100 µg/mL and the “MIC Without NaCl” value [17] is reported as 6.25 to 12.5 µg/mL.

Reference: publication PMC6631481, “De Novo Design and In Vitro Testing of Antimicrobial Peptides against Gram-Negative Bacteria” (Pharmaceuticals, 2019)
